The assay concerns HIV-IIIb. Briefly: Test A: Antiviral Assay in MT4 Cells. It counts as cell-based. The following applies: Human immunodeficiency virus 1, IIIB, MT4, 120 h, MT-4 cells infected with HIV-IIIb, 5 days of incubation, CellTiter-Glo, read-out: EC50. An outline of the steps:
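Read-out: CellTiter-Glo chemiluminescence after 5-day incubation at 37 °C. Compounds tested as 3-fold serial dilutions (10 concentrations, quadruplicate) in RPMI 1640 with 10% FBS, on MT-4 cells pre-infected at 37 °C with HIV-IIIb at 0.004 m.o.i.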

Where two headings read alike, the source gives them in different places.

The EC50 is the concentration at which the effect is half-maximal. As for `Cc1cc2nc(-c3cccc(-c4ccc(N5CCN(C)CC5)nc4)c3)sc2c(-c2ccc(Cl)cc2)c1[C@H](OC(C)(C)C)C(=O)O` [Compound 153], the EC50 (Table 1) amounted to 0.015 µM.

As for `Cc1cc2nc(-c3ccnc(-c4cnn(C)c4)c3)sc2c(-c2ccc(Cl)cc2)c1[C@H](OC(C)(C)C)C(=O)O` [Compound 154], where the note is “Table 1”, the concentration giving a half-maximal response (EC50) stood at 0.016 µM.

In the case of `Cc1cc2nc(-c3ccnc(-c4cccc(C(N)=O)c4)c3)sc2c(-c2ccc(Cl)cc2)c1[C@H](OC(C)(C)C)C(=O)O` [Compound 155], the EC50 (Table 1) turned out to be 0.066 µM.

For `Cc1cc2nc(-c3ccnc(-c4cccc(C#N)c4)c3)sc2c(-c2ccc(Cl)cc2)c1[C@H](OC(C)(C)C)C(=O)O` [Compound 156], for the setting “Table 1”, the EC50 was determined as 0.026 µM.

Turning to `Cc1cc2nc(-c3cncc(-c4ccc5c(c4)ncn5C)c3)sc2c(-c2ccc(Cl)cc2)c1[C@H](OC(C)(C)C)C(=O)O` [Compound 157], the EC50 (Table 1) came out at 0.029 µM.

`Cc1cc2nc(-c3cccc(-c4ccnn4C)c3)sc2c(-c2ccc(Cl)cc2)c1[C@H](OC(C)(C)C)C(=O)O` [Compound 159]: the EC50 (Table 1) is 0.046 µM.

As to `COc1ncccc1-c1cccc(-c2nc3cc(C)c([C@H](OC(C)(C)C)C(=O)O)c(-c4ccc(Cl)cc4)c3s2)c1` [Compound 160], the EC50 (Table 1) amounted to 0.136 µM.

In the case of `COc1ccncc1-c1cccc(-c2nc3cc(C)c([C@H](OC(C)(C)C)C(=O)O)c(-c4ccc(Cl)cc4)c3s2)c1` [Compound 161], where the note is “Table 1”, the EC50 amounted to 0.116 µM.

With `Cc1cc2nc(-c3cccc(-c4ccccc4)c3F)sc2c(-c2ccc(Cl)cc2)c1[C@H](OC(C)(C)C)C(=O)O` [Compound 162], the EC50 (Table 1) turned out to be 0.35 µM.

`Cc1cc2nc(-c3cccc(-c4ccc5c(cnn5C)c4)c3)sc2c(-c2ccc3c(c2)C(=O)CCO3)c1[C@H](OC(C)(C)C)C(=O)O` [Compound 169]: the EC50 (Table 1) is 0.033 µM.

As to `Cc1cc2nc(-c3cccc(-c4ccc5c(cnn5C)c4)c3)sc2c(-c2ccc3c(c2)CCCO3)c1[C@H](OC(C)(C)C)C(=O)O` [Compound 170], for the setting “Table 1”, the EC50 worked out at 0.035 µM.

Consider `CCn1cc2cc(-c3cc(-c4nc5cc(C)c([C@H](OC(C)(C)C)C(=O)O)c(-c6ccc(Cl)cc6)c5s4)ccn3)ccc2n1` [Compound 173, (S)-2-tert-butoxy-2-(7-(4-chlorophenyl)-2-(2-(2-ethyl-2H-indazol-5-yl)pyridin-4-yl)-5-methylbenzo[d]thiazol-6-yl)acetic acid], for which the EC50 (Table 2) worked out at 0.011 µM.

For the compound `CCn1ncc2cc(-c3cc(-c4nc5cc(C)c([C@H](OC(C)(C)C)C(=O)O)c(-c6ccc(Cl)cc6)c5s4)ccn3)ccc21` [Compound 174, (S)-2-tert-butoxy-2-(7-(4-chlorophenyl)-2-(2-(1-ethyl-1H-indazol-5-yl)pyridin-4-yl)-5-methylbenzo[d]thiazol-6-yl)acetic acid], the concentration giving a half-maximal response (EC50) (Table 2) was found to be 0.026 µM.

Turning to `Cc1cc2nc(-c3ccnc(-c4ccc5c(cnn5C5CC5)c4)c3)sc2c(-c2ccc(Cl)cc2)c1[C@H](OC(C)(C)C)C(=O)O` [Compound 175, (S)-2-tert-butoxy-2-(7-(4-chlorophenyl)-2-(2-(1-cyclopropyl-1H-indazol-5-yl)pyridin-4-yl)-5-methylbenzo[d]thiazol-6-yl)acetic acid], the EC50 (Table 2) worked out at 0.033 µM.

`Cc1cc2nc(-c3ccnc(-c4ccc5nn(C(F)F)cc5c4)c3)sc2c(-c2ccc(Cl)cc2)c1[C@H](OC(C)(C)C)C(=O)O` [Compound 176, (S)-2-tert-butoxy-2-(7-(4-chlorophenyl)-2-(2-(2-(difluoromethyl)-2H-indazol-5-yl)pyridin-4-yl)-5-methylbenzo[d]thiazol-6-yl)acetic acid]: the EC50 (Table 2) was 0.018 µM.

Consider `Cc1cc2nc(-c3ccnc(-c4ccc5c(cnn5C(F)F)c4)c3)sc2c(-c2ccc(Cl)cc2)c1[C@H](OC(C)(C)C)C(=O)O` [Compound 177, (S)-2-tert-butoxy-2-(7-(4-chlorophenyl)-2-(2-(1-(difluoromethyl)-1H-indazol-5-yl)pyridin-4-yl)-5-methylbenzo[d]thiazol-6-yl)acetic acid], for which, where the note is “Table 2”, the EC50 was determined as 0.039 µM.

Take `Cc1cc2nc(-c3ccnc(-c4ccc5c(cnn5C(F)(F)F)c4)c3)sc2c(-c2ccc(Cl)cc2)c1[C@H](OC(C)(C)C)C(=O)O` [Compound 178, (S)-2-tert-butoxy-2-(7-(4-chlorophenyl)-5-methyl-2-(2-(1-(trifluoromethyl)-1H-indazol-5-yl)pyridin-4-yl)benzo[d]thiazol-6-yl)acetic acid]: the EC50 (Table 2) was determined as 0.089 µM.

With `Cc1cc2nc(-c3ccnc(-c4ccc5c(cnn5C5CNC5)c4)c3)sc2c(-c2ccc(Cl)cc2)c1[C@H](OC(C)(C)C)C(=O)O` [Compound 179, (S)-2-(2-(2-(1-(azetidin-3-yl)-1H-indazol-5-yl)pyridin-4-yl)-7-(4-chlorophenyl)-5-methylbenzo[d]thiazol-6-yl)-2-tert-butoxyacetic acid], the EC50 (Table 2) was 0.073 µM.

On to `Cc1cc2nc(-c3ccnc(-c4ccc5c(cnn5C)n4)c3)sc2c(-c2ccc(Cl)cc2)c1[C@H](OC(C)(C)C)C(=O)O` [Compound 180, (S)-2-tert-butoxy-2-(7-(4-chlorophenyl)-5-methyl-2-(2-(1-methyl-1H-pyrazolo[4,3-b]pyridin-5-yl)pyridin-4-yl)benzo[d]thiazol-6-yl)acetic acid], for which the EC50 (Table 2) came to 0.005 µM.

Take `Cc1cc2c(c(-c3ccc(Cl)cc3)c1[C@H](OC(C)(C)C)C(=O)O)n(C1CCN(C)CC1)c(=O)n2C` [Compound 181, (S)-2-tert-butoxy-2-(4-(4-chlorophenyl)-1,6-dimethyl-3-(1-methylpiperidin-4-yl)-2-oxo-2,3-dihydro-1H-benzo[d]imidazol-5-yl)acetic acid]: the EC50 (Table 2) was determined as 0.027 µM.

In the case of `Cc1cc2nc(-c3cccn(-c4ccc5c(cnn5C)c4)c3=O)sc2c(-c2ccc(Cl)cc2)c1[C@H](OC(C)(C)C)C(=O)O` [Compound 182, (S)-2-tert-butoxy-2-(7-(4-chlorophenyl)-5-methyl-2-(1-(1-methyl-1H-indazol-5-yl)-2-oxo-1,2-dihydropyridin-3-yl)benzo[d]thiazol-6-yl)acetic acid], the 50% effective concentration (EC50) (Table 2) is 0.08 µM.

`Cc1cc2nc(-c3ccnc(-c4ccc5c(c4)n(C)c(=O)n5C)c3)sc2c(-c2ccc(Cl)cc2)c1[C@H](OC(C)(C)C)C(=O)O` [Compound 183, (S)-2-tert-butoxy-2-(7-(4-chlorophenyl)-2-(2-(1,3-dimethyl-2-oxo-2,3-dihydro-1H-benzo[d]imidazol-5-yl)pyridin-4-yl)-5-methylbenzo[d]thiazol-6-yl)acetic acid]: the EC50 (Table 2) is 0.018 µM.

`Cc1cc2nc(-c3ccnc(-c4cnc5c(c4)OCC(=O)N5)c3)sc2c(-c2ccc(Cl)cc2)c1[C@H](OC(C)(C)C)C(=O)O` [Compound 184, (S)-2-tert-butoxy-2-(7-(4-chlorophenyl)-5-methyl-2-(2-(3-oxo-3,4-dihydro-2H-pyrido[3,2-b][1,4]oxazin-7-yl)pyridin-4-yl)benzo[d]thiazol-6-yl)acetic acid]: the EC50 (Table 2) was found to be 0.019 µM.

As to `Cc1cc2nc(-c3ccnc(-n4ccc5cccnc5c4=O)c3)sc2c(-c2ccc(Cl)cc2)c1[C@H](OC(C)(C)C)C(=O)O` [Compound 187, (S)-2-tert-butoxy-2-(7-(4-chlorophenyl)-5-methyl-2-(2-(8-oxo-1,7-naphthyridin-7(8H)-yl)pyridin-4-yl)benzo[d]thiazol-6-yl)acetic acid], where the note is “Table 2”, the EC50 turned out to be 0.025 µM.

Values taken from US8987250B2 (Gilead Sciences, Inc., priority 2012, dated 2015).
